According to patent US8829014B2, “Thiazole and thiophene analogues, and their use in treating autoimmune diseases and cancers” (Board of Supervisors of Louisiana State University and …, priority 2006, dated 2014):
pIC50: −log10 of the molar value.

How the values were obtained:
eIF4E = eIF4E inhibitor screen: luciferase under FGF 5′UTR in FaDu cells (highly cap-dependent translation); format: cell-based
Text: Since highly cap-dependent translation is associated with synthesis of proteins involved in cancer, a compound that inhibits this pathway may be used as an anti-cancer agent. The assay was developed by cloning the highly structured 5′ UTR of FGF, which requires high levels of eIF4E before protein synthesis can initiate, into the proper orientation of the reporter gene luciferase, and then stably transfecting the modified luciferase gene into the cell line FaDu that is known to have high levels of eIF4E. The activity of luciferase is then monitored in the presence and absence of the tested compound.
Generation of Stable Cell Lines: The pMS110 plasmid (pGL3-control plasmid from Promega which contains a neo selectable marker) was used to generate pMS110-5′UTR by cloning the 5′ UTR of FGF just upstream of the luciferase AUG start codon. FaDu cells, a head and neck cancer cell line, were transfected using Lipofectamine2000 (Invitrogen). Twenty-four hours after transfection G418 was added at 500 μg/ml. Cells were maintained in G418 for 14 days, and then individual colonies were transferred to a 96-well plate for propagation. Individual clones were analyzed for luciferase expression by plating 10^4 cells per well in a 96-well plate for 24 hours before lysing the cells and analyzing for luciferase activity in a Victor III (Perkin Elmer) or Lucy2 (Rosys Anthos). FaDu9000 and FaDuUTR were the clones that expressed the highest level of active luciferase following transfection of pMS110 and pMS110-5′UTR, respectively.
Analysis of Rapamycin Responsiveness: Cells of FaDu9000 and FaDuUTR were plated at 1×10^4 cells/well in a 96-well dish. Twenty-four hours after plating, 0.1% DMSO (vehicle control) or 10 nM rapamycin were added to each well, and the cells were maintained for an additional 24 or 48 hours. The cells were then lysed and luciferase activity was determined using BriteGlo (Promega) as per manufacturer's instruction and recorded using the Victor III. Following subtraction of background activity, the mean value of quadruplicate samples for a given experiment was determined, and the treated cells were normalized to the control. At least four separate experiments were conducted, and the mean and standard error were calculated. To determine if rapamycin affected cell viability, an MTS assay (Cell Proliferation One Solution, Promega) was carried out on each population at 48 hours in two separate experiments.
The FaDu cell line stably transfected with FGF 5′UTR was used to screen thirty-nine representative compounds, each at a concentration of 1.0 μM. Additional cells were treated with vehicle, 0.3% DMSO. Cells were plated for twenty-four hours in a 96-well plate. Each compound was then added to triplicate wells, and the cells were incubated for forty-eight hours before measuring luciferase activity as above. The mean luciferase activity was measured using Promega's Brite-Glo kit, and the mean for each sample was normalized to DMSO. The experiment was then repeated, and the average and standard deviation of the two experiments were determined (FIG. 8).

FaDu cells = format: cell-based; conditions: MTT, 24 hr, 10 nM to 3.3 μM (FIG. 9)
Text: […]. Values greater than 1.0 indicate activation, and values less than 1.0 indicate inhibition.) The compounds that inhibited luciferase translation might, potentially, act by generally inhibiting translation, by reducing cell numbers through inhibition of growth or by cell toxicity, or specifically by inhibiting highly cap-dependent translation. To analyze any general effects on cell viability, fourteen compounds were selected that altered luciferase activity (including a few that increased activity) to test for any effects on cell number. An MTT assay was used to monitor compounds for inhibition of cell growth and cell toxicity. The compounds were tested once in a six-point dose-response assay starting at 10 nM and increasing to 3.3 μM. FaDu cells were plated in a 96-well plate for 24 hr before addition of the compounds. Each compound was added in each of six concentrations (10 nM, 30 nM, 100 nM, 330 nM, 1000 nM, and 3300 nM), and each concentration was tested in triplicate. In addition, DMSO was used as a control. After incubating for 24 hr, the cell number was measured using the MTT assay.

AP-1 [1] = test: AP-1 inhibitor screen: basal AP-1-dependent luciferase expression in HEK/AP-1 cell line; format: cell-based; conditions: 1.0 μM, 48 hr screen of 39 compounds (FIG. 13)
How it was run: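 Compound effects on unstimulated reporter signal were tested: 1.0 μM compound (0.3% DMSO) for 48 hr on HEK cells bearing an AP-1 (TGACTAA ×3)-luciferase construct, seeded 24 hr earlier. Triplicate luminescence means were normalized to DMSO-only wells; dose-response experiments were repeated 2–4 times.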

NF-κB [2] = test: NF-κB inhibitor screen: basal NF-κB-dependent luciferase expression in HEK/NF-κB cell line; format: cell-based
How it was run: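 Basal NF-κB-driven luciferase (six-copy element, stable HEK293 line) was read with Brite-Glo. Compound was added in 0.3% DMSO 24 h post-plating, initially at 1.0 μM and then across 10–3300 nM in six steps, in triplicate wells. Signals were expressed relative to DMSO or to the lowest concentration tested.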

AP-1 [3] = test: PMA-induced AP-1 luciferase expression in HEK cells; format: cell-based; conditions: for AP-1 % inhibition: four lead compounds, Table 13; for pIC50: 6 point dose-response curves, read-out: IC50 concentrations AP-1
carageenan-induced edema = test: Carrageenan-induced rat paw edema test (anti-inflammatory activity); format: in vivo, Sprague-Dawley rats; conditions: for In vivo inflammation % inhibition: rat paw edema induced by carageenan injection
How it was run: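 Edema was raised by sub-plantar injection of 1% carrageenan into the right hind paw, 1 h after dosing 18 h-fasted male/female Sprague-Dawley rats (150-250 g) with 50 mg/kg p.o. in 0.1% CMC. Swelling was measured by displacement 3 h later and expressed as % protection against saline control.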

[4] = test system: cell lines from the prostate, one tumorigenic and one non-tumorigenic; test: MTT viability in prostate cell line pair, tumorigenic and non-tumorigenic; format: cell-based; conditions: 10 μM, 48 h, tumorigenic vs non-tumorigenic line
Description: Additional compounds have also been tested for their ability to inhibit both TNF-α-induced NF-κB—expression and PMA-induced AP-1 expression. In both tests, the compound was added for 1 h, then the appropriate inducer was added, and luciferase activity was monitored 24 h later. Values were then normalized to the vehicle control, DMSO. Following the initial luciferase screens, studies were conducted to assess the cytotoxicity of the compounds in normal cells such as VSMC, HUVEC, or HPT cells. Human umbilical vein endothelial cells (HUVEC) represent the normal endothelium, vascular smooth muscle cells (VSMC) were represented by cells from the adult rat aorta, and human proximal tubule (HPT) cells represent the normal proximal tubule in vivo. These cells were grown to near confluency in multi-well plates, and were then treated for 48 h with either vehicle (0.1% DMSO) or 10 μM of each drug candidate. Following treatment, the media from the VSMC and HUVEC incubations were removed, and the amount of lactate dehydrogenase (LDH) released into the medium was determined with a commercial kit. LDH is normally confined to the cytosol, and its release represents “leakiness” of the plasma membrane. LDH activity was expressed as % increase over vehicle-treated cells. […] The number of both live and dead cells was counted using an automated cell viability analyzer. The % decrease in numbers of viable cells was determined. Toxicity in the treated HPT cells was determined by the ethidium homodimer (EthHD) uptake assay. […] Results were expressed as a % increase in cell death over vehicle-treated cells. […] Following treatment, the viability of the cells was determined by the MTT assay. In this assay, the MTT dye is converted only in viable cells by intracellular enzymes to a colorimetric product that is quantitated by a microplate reader.
For the results in Table 13, cells were grown to near confluency in multi-well plates, then treated for 48 h with either vehicle (0.1% DMSO) or 10 μM of each drug candidate. Following treatment, the media from the VSMC and HUVEC incubations were removed, and the amount of lactate dehydrogenase (LDH) released into the medium was determined with a commercial kit and expressed as a % increase over vehicle-treated cells. HPT toxicity was determined by the ethidium homodimer (EthHD) uptake assay. Inside the cell, EthHD produces a strong fluorescent signal, which is proportional to the amount of cell death, expressed as a % increase in cell death over vehicle-treated cells. […] The cells were treated for 48 h with vehicle (0.1% DMSO) or 10 μM of each drug candidate, and the viability of the cells was determined by the MTT assay, expressed as a % decrease in viability compared to vehicle-treated cells. […]

[5] = test system: cell lines from the skin, one tumorigenic and one non-tumorigenic; test: MTT viability in skin cell line pair, tumorigenic and non-tumorigenic; format: cell-based; conditions: 10 μM, 48 h, MTT; tumorigenic vs non-tumorigenic line
Description: Additional compounds have also been tested for their ability to inhibit both TNF-α-induced NF-κB—expression and PMA-induced AP-1 expression. In both tests, the compound was added for 1 h, then the appropriate inducer was added, and luciferase activity was monitored 24 h later. Values were then normalized to the vehicle control, DMSO. Following the initial luciferase screens, studies were conducted to assess the cytotoxicity of the compounds in normal cells such as VSMC, HUVEC, or HPT cells. Human umbilical vein endothelial cells (HUVEC) represent the normal endothelium, vascular smooth muscle cells (VSMC) were represented by cells from the adult rat aorta, and human proximal tubule (HPT) cells represent the normal proximal tubule in vivo. These cells were grown to near confluency in multi-well plates, and were then treated for 48 h with either vehicle (0.1% DMSO) or 10 μM of each drug candidate. Following treatment, the media from the VSMC and HUVEC incubations were removed, and the amount of lactate dehydrogenase (LDH) released into the medium was determined with a commercial kit. LDH is normally confined to the cytosol, and its release represents “leakiness” of the plasma membrane. LDH activity was expressed as % increase over vehicle-treated cells. In another assay of viability, the treated VSMC and HUVEC were removed by trypsinization and treated with trypan blue, a dye that is taken up only by dead cells. The number of both live and dead cells was counted using an automated cell viability analyzer. The % decrease in numbers of viable cells was determined. Toxicity in the treated HPT cells was determined by the ethidium homodimer (EthHD) uptake assay. EthHD is a fluorescent dye that is excluded from live cells, but is taken up by cells that have lost permeability barriers. Inside the cell, EthHD produces a strong fluorescent signal, which is proportional to the number of dead cells. Results were expressed as a % increase in cell death over vehicle-treated cells. The lead compounds were also tested in two pairs of cell lines from either the skin or prostate, one tumorigenic and one non-tumorigenic, to test for any differences in toxicity or heightened sensitivity in the tumorigenic lines. The cells were treated for 48 h with vehicle (0.1% DMSO) or 10 μM of each drug candidate. Following treatment, the viability of the cells was determined by the MTT assay. In this assay, the MTT dye is converted only in viable cells by intracellular enzymes to a colorimetric product that is quantitated by a microplate reader.
For the results in Table 13, cells were grown to near confluency in multi-well plates, then treated for 48 h with either vehicle (0.1% DMSO) or 10 μM of each drug candidate. Following treatment, the media from the VSMC and HUVEC incubations were removed, and the amount of lactate dehydrogenase (LDH) released into the medium was determined with a commercial kit and expressed as a % increase over vehicle-treated cells. HPT toxicity was determined by the ethidium homodimer (EthHD) uptake assay. Inside the cell, EthHD produces a strong fluorescent signal, which is proportional to the amount of cell death, expressed as a % increase in cell death over vehicle-treated cells. The lead compounds were also tested in two pairs of cell lines from the skin or prostate, one tumorigenic and one non-tumorigenic, to test for differing toxicity or heightened sensitivity in the tumorigenic lines. The cells were treated for 48 h with vehicle (0.1% DMSO) or 10 μM of each drug candidate, and the viability of the cells was determined by the MTT assay, expressed as a % decrease in viability compared to vehicle-treated cells. The in vivo inflammation model measured the % inhibition of rat paw edema induced by carageenan injection.

NF-κB [6] = test: TNF-α-induced NF-κB-dependent luciferase expression in HEK cells; format: cell-based; design: NF-κB % inhibition: concentration or dose not given beside the values; conditions: for NF-κB % inhibition: four lead compounds, Table 13

| SMILES | luciferase expression under the control of the FGF 5′UTR (eIF4E; 1.0 μM, 48 h, FaDu UTR cells, normalized to DMSO (FIG. 8)) | inhibition of luciferase activity (FGF 5′UTR) (eIF4E; highest concentration tested) | inhibition of highly cap-dependent translation (summary statement) (eIF4E; summary in the disclosure) | FaDu cell number / growth / viability (FaDu cells) | basal AP-1-dependent luciferase expression (AP-1 [1]) | basal NF-κB-dependent luciferase, six-point dose response (NF-κB [2]; 10 nM-3300 nM (FIG. 12)) | inhibition of basal NF-κB-dependent luciferase expression (NF-κB [2]; 3.3 μM (FIG. 12)) | inhibition of NF-κB (summary statement) (NF-κB [2]; summary in the disclosure) | AP-1 % inhibition (AP-1 [3]) [%] | In vivo inflammation % inhibition (carageenan-induced edema) [%] | Differential Toxicity* Prostate [4] | Differential Toxicity* Skin [5] | pIC50 (AP-1 [3]) | pIC50 (NF-κB [6]; 6 point dose-response curves, read-out: IC50 concentrations NF-κB) | inflammation in the in vivo assay (carageenan-induced edema; rat paw edema) | NF-κB % inhibition (NF-κB [6]) [%] |
| --- | --- | --- | --- | --- | --- | --- | --- | --- | --- | --- | --- | --- | --- | --- | --- | --- |
| COc1ccc(C(=O)c2sc(Nc3ccc(Cl)cc3)nc2-c2ccncc2)cc1 [Example 116] | inhibited luciferase expression | greater than 90% | capable of inhibiting | inhibited cell numbers at each concentration tested | almost complete inhibition | robust inhibition | about 50% | capable of inhibiting | – | – | – | – | – | – | – | – |
| Cc1nc(Nc2ccc(Cl)cc2)sc1-c1nc2ccccc2c(=O)n1-c1ccccc1Cl [PMCR 120] | – | – | – | – | – | – | – | – | 27 | 58 | Both | Cancer | – | – | – | – |
| CNc1nc(-c2ccccc2)c(-c2nc3ccccc3c(=O)n2-c2ccccc2OC)s1 [PMCR 75] | – | – | – | – | – | – | – | – | 90 | 56 | Normal | Both | 6.70 | 6.30 | – | – |
| CC(=O)c1ccc(-n2c(-c3cc(-c4ccncc4)c(N4CCOCC4)s3)nc3ccccc3c2=O)cc1 [PMCR 242] | – | – | – | – | – | – | – | – | 84 | 80 | Cancer | Neither | 5.30 | – | strongly inhibited inflammation | 66 |
| Cc1ccccc1-n1c(-c2sc(Nc3ccccc3)nc2C)nc2ccccc2c1=O [PMCR 20] | – | – | – | – | – | – | – | – | 73 | 42 | Cancer | Neither | – | – | – | 21 |
